Laboratory results from patent US10919937B2, “Bicyclic peptide ligands and uses thereof” (BicycleTx Limited, priority 2018, dated 2021).
pKi: −log10 of the molar value. *1 amine or outer side, *2 acyl side, *3 side chain or, on linkers, in order; H or OH if unused. Where a SMILES comes first, the peptide text is derived from it. Bridges are numbered along the chain shown (N, C = ends). [ ]: non-standard residue; d: D form. X11 = O=C(C[*:1])N1CCN(c2ccc(-c3nc(-c4ccc(N5CCN(C(=O)C[*:2])CC5)cc4)nc(-c4ccc(N5CCN(C(=O)C[*:3])CC5)cc4)n3)cc2)CC1; X14 = CC(C)(C)[C@H](N[*:3])C(=O)C[C@@H](CSCc1ccc(-c2nc(-c3ccc(C[*:1])cc3)nc(-c3ccc(C[*:2])cc3)n2)cc1)C(N)=O; X10 = O=C(C[*:1])N1CCC(N2CCN(c3nc(N4CCN(C5CCN(C(=O)C[*:2])CC5)CC4)nc(N4CCN(C5CCN([*:3])CC5)CC4)n3)CC2)CC1; X12 = CC(C)(C)[C@H](N[*:3])C(=O)C[C@@H](CSCc1ccc(CN(Cc2ccc(C[*:1])cc2)Cc2ccc(C[*:2])cc2)cc1)C(N)=O; X6 = O=C(C[*:1])N1Cc2cccc(c2)CN(C(=O)C[*:2])Cc2cccc(c2)CN(C(=O)C[*:3])Cc2cccc(c2)C1; X3 = CC(C)(C)[C@H](N[*:1])C(=O)C[C@@H](CSCc1ccc(C(=O)[*:2])cc1)C(N)=O; X1 = c1cc(-c2nc(-c3ccc(C[*:2])cc3)nc(-c3ccc(C[*:3])cc3)n2)ccc1C[*:1]; X4 = O=C(c1ccc(C[*:1])cc1)N1CN(C(=O)c2ccc(C[*:2])cc2)CN([*:3])C1; X9 = CC(C)(C)[C@H](N[*:1])C(=O)C[C@@H](CSCC(=O)[*:2])C(N)=O; 1Nal = N[C@@H](Cc1cccc2ccccc12)C(=O)O; TBMB = c1c(C[*:1])cc(C[*:3])cc1C[*:2]; Tle = CC(C)(C)[C@H](N)C(=O)O

molecular target: CAIX (Homo sapiens, UniProt Q16790); assay: CAIX Competition Binding Assay (competition fluorescence polarization); conditions: not given
Protocol: CAIX Competition Binding Assay. Affinity of the peptides of the invention for human CAIX (Ki) is determined using a competition fluorescence polarization assay analogous to that described in Dubois et al. (2011) Radiotherapy and Oncology 99(3), 424-43 using A-(CAECWIDGWVPC)-A-Sar6-K(Fl), (SEQ ID NO: 11), as the fluorescent ligand.
Compounds described as “B” have a K, equal to or greater than 0.5 μM and less than 1 μM. Compounds described as “C” have a K, equal to or greater than 1 μM and less than 10 μM. Compounds described as “D” have a K, equal to or greater than 10 μM.

SMILES	pKi
CC(=O)N[C@H]1CSCc2cc3cc(c2)CSC[C@@H](C(N)=O)NC(=O)[C@@H]2CCCN2C(=O)[C@H](C(C)C)NC(=O)[C@H](Cc2c[nH]c4ccccc24)NC(=O)CNC(=O)[C@H](CC(=O)O)NC(=O)[C@H](C(C)C)NC(=O)[C@H](Cc2c[nH]c4ccccc24)NC(=O)[C@H](Cc2ccc(cc2)OC3)NC(=O)[C@H](CCC(=O)O)NC(=O)[C@H]([C@@H](C)O)NC1=O [I-108] (Ac-CTEYWVDGWVPC-NH2; linker 1-4-12 via TBMB)	> 6.30

same assay, conditions: human CAIX, competition FP, n = 2; read-out: Ki

pKi	SMILES
< 5.00	CC(C)[C@@H]1NC(=O)[C@H](Cc2c[nH]c3ccccc23)NC(=O)[C@@H]2CSCC(=O)N3Cc4cccc(c4)CN(Cc4cccc(c4)CN(Cc4cccc(c4)C3)C(=O)CSC[C@H](NC(=O)[C@H](C)NC(=O)CN(C)C(=O)CN(C)C(=O)CN(C)C(=O)CN(C)C(=O)CN(C)C(=O)CN(C)C(=O)CN(C)C(=O)CN(C)C(=O)CN(C)C(=O)CN(C)C(=O)CCN)C(=O)N[C@@H]([C@@H](C)O)C(=O)N[C@@H](CCC(=O)O)C(=O)N2)C(=O)CSC[C@@H](C(N)=O)NC(=O)[C@@H]2CCCN2C(=O)[C@H](C(C)C)NC(=O)[C@H](Cc2c[nH]c3ccccc23)NC(=O)CNC(=O)[C@H](CC(=O)O)NC1=O [I-23]
6.00 to 6.30	CC(=O)N[C@H]1Cc2ccc(cc2)OCc2cc3cc(c2)CSC[C@H](NC(=O)[C@H](CCC(=O)O)NC(=O)[C@H]([C@@H](C)O)NC1=O)C(=O)N[C@@H](Cc1c[nH]c2ccccc12)C(=O)N[C@@H](C(C)C)C(=O)N[C@@H](CC(=O)O)C(=O)NCC(=O)N[C@@H](Cc1c[nH]c2ccccc12)C(=O)N[C@@H](C(C)C)C(=O)N1CCC[C@H]1C(=O)N[C@H](C(N)=O)Cc1ccc(cc1)OC3 [I-109] (Ac-YTECWVDGWVPY-NH2; linker 1-4-12 via TBMB)

SMILES	pKi
CC(=O)N[C@H]1CSCc2ccc(cc2)-c2nc3nc(n2)-c2ccc(cc2)CSC[C@H](NC(=O)[C@H](CCC(=O)O)NC(=O)[C@H]([C@@H](C)O)NC1=O)C(=O)N[C@@H](Cc1c[nH]c2ccccc12)C(=O)N[C@@H](C(C)C)C(=O)N[C@@H](CC(=O)O)C(=O)NCC(=O)N[C@@H](Cc1c[nH]c2ccccc12)C(=O)N[C@@H](C(C)C)C(=O)N1CCC[C@H]1C(=O)N[C@H](C(N)=O)CSCc1ccc-3cc1 [I-98] (Ac-CTECWVDGWVPC-NH2; linker 1-4-12 via X1)	> 6.30

molecular target: MT1-MMP hemopexin domain (Homo sapiens, UniProt P50281); assay: MT1-MMP Direct Binding Fluorescence Polarization (Anisotropy) Assay; conditions: MT1-MMP direct binding FP, n=2
Protocol: Direct Binding Fluorescence Polarization or Anisotropy Assays are performed by titrating a constant concentration of fluorescent tracer (here, the fluoresceinated bicyclic peptide to be studied) with its binding partner (here, the MT1-MMP hemopexin domain). As the concentration of binding partner increases during the titration, the polarization signal changes in proportion to the fraction of bound and unbound material. This allows determination of […] (Kd) quantitatively. Assay data can be fit using standard ligand binding equations.
Typically, concentrations of the tracer are ideally well below the Kd of the tracer:titrant pair, and concentrations chosen are usually at ˜1 nM or less. The titrant (binding partner) concentration is varied from 0.1 nM up to typically 5 μM. The range is chosen such that the maximum change in fluorescent polarization can be observed. Buffers employed are phosphate buffered saline in the presence of 0.01% Tween. Experiments were run in black 384 well low-bind/low volume plates (Corning 3820), and the fluorescent polarization signal was measured using a BMG Pherastar FS plate reader. Fluorescent tracers referred to in the text are bicyclic peptides that have been fluoresceinated using 5,6-carboxyfluorescein. Fluoresceination may be performed on the N-terminal amino group of the peptide, which is separated from the bicycle core sequence by a sarcosine spacer (usually Sar5). This can be done during Fmoc solid phase synthesis or post-synthetically (after cyclization with the molecular scaffold reagent and purification) if the N-terminal amino group is unique to the peptide. Fluoresceination can also be performed on the C-terminus, usually on a Lysine introduced as the first C-terminal residue, which is then separated from the bicycle core sequence by a sarcosine spacer (usually Sar6). Thus, N-terminal tracers can have a molecular format described as Fluo-Gly-Sar5-A(BicycleCoreSequence), and (BicycleCoreSequence)-A-Sar6-K(Fluo) for a C-terminally fluoresceinated construct.

SMILES	pKi
C[C@H](N)C(=O)N[C@H]1CSCC(=O)N2CCC(CC2)N2CCN(CC2)c2nc3nc(n2)N2CCN(CC2)C2CCN(CC2)C(=O)CSC[C@H](NC(=O)[C@@H](C)NC(=O)[C@H](Cc2cccc4ccccc24)NC(=O)[C@H](CCC(=O)O)NC(=O)[C@H](CC(N)=O)NC(=O)[C@@H](C)NC1=O)C(=O)N[C@@H](CCC(=O)O)C(=O)N[C@@H](CC(=O)O)C(=O)N[C@@H](Cc1ccccc1)C(=O)N[C@@H](Cc1ccc(O)cc1)C(=O)N[C@@H](CC(=O)O)C(=O)N[C@@H](C(C)(C)C)C(=O)C[C@H](C(N)=O)CSCC(=O)N1CCC(CC1)N1CCN3CC1 [I-91] (H-AC[dA]NE[1Nal][dA]CEDFYD[X9]; linker 2-8-C via X10)	> 6.30
C[C@H](N)C(=O)N[C@H]1CSCC(=O)N2CCN(CC2)c2ccc(cc2)-c2nc3nc(n2)-c2ccc(cc2)N2CCN(CC2)C(=O)CSC[C@H](NC(=O)[C@@H](C)NC(=O)[C@H](Cc2cccc4ccccc24)NC(=O)[C@H](CCC(=O)O)NC(=O)[C@H](CC(N)=O)NC(=O)[C@@H](C)NC1=O)C(=O)N[C@@H](CCC(=O)O)C(=O)N[C@@H](CC(=O)O)C(=O)N[C@@H](Cc1ccccc1)C(=O)N[C@@H](Cc1ccc(O)cc1)C(=O)N[C@@H](CC(=O)O)C(=O)N[C@@H](C(C)(C)C)C(=O)N[C@H](C(N)=O)CSCC(=O)N1CCN(CC1)c1ccc-3cc1 [I-94] (H-AC[dA]NE[1Nal][dA]CEDFYD[Tle]C-NH2; linker 2-8-15 via X11)	> 6.30

Continued, values first:

pKi	SMILES
≤ 5.00	C[C@H](N)C(=O)N[C@H]1CSCC(=O)N2Cc3cccc(c3)CN3Cc4cccc(c4)CN(Cc4cccc(c4)C2)C(=O)CSC[C@H](NC(=O)[C@@H](C)NC(=O)[C@H](Cc2cccc4ccccc24)NC(=O)[C@H](CCC(=O)O)NC(=O)[C@H](CC(N)=O)NC(=O)[C@@H](C)NC1=O)C(=O)N[C@@H](CCC(=O)O)C(=O)N[C@@H](CC(=O)O)C(=O)N[C@@H](Cc1ccccc1)C(=O)N[C@@H](Cc1ccc(O)cc1)C(=O)N[C@@H](CC(=O)O)C(=O)N[C@@H](C(C)(C)C)C(=O)N[C@H](C(N)=O)CSCC3=O [I-44] (H-AC[dA]NE[1Nal][dA]CEDFYD[Tle]C-NH2; linker 2-8-15 via X6)
> 6.30	C[C@H](N)C(=O)N[C@H]1CSCc2ccc(cc2)-c2nc3nc(n2)-c2ccc(cc2)CSC[C@H](NC(=O)[C@@H](C)NC(=O)[C@H](Cc2cccc4ccccc24)NC(=O)[C@H](CCC(=O)O)NC(=O)[C@H](CC(N)=O)NC(=O)[C@@H](C)NC1=O)C(=O)N[C@@H](CCC(=O)O)C(=O)N[C@@H](CC(=O)O)C(=O)N[C@@H](Cc1ccccc1)C(=O)N[C@@H](Cc1ccc(O)cc1)C(=O)N[C@@H](CC(=O)O)C(=O)N[C@@H](C(C)(C)C)C(=O)C[C@H](C(N)=O)CSCc1ccc-3cc1 [I-90] (H-AC[dA]NE[1Nal][dA]CEDFYD; linker 2-8-C via X14)
> 6.30	C[C@H](N)C(=O)N[C@H]1CSCc2ccc(cc2)C(=O)N2CN3CN(C2)C(=O)c2ccc(cc2)CSC[C@H](NC(=O)[C@@H](C)NC(=O)[C@H](Cc2cccc4ccccc24)NC(=O)[C@H](CCC(=O)O)NC(=O)[C@H](CC(N)=O)NC(=O)[C@@H](C)NC1=O)C(=O)N[C@@H](CCC(=O)O)C(=O)N[C@@H](CC(=O)O)C(=O)N[C@@H](Cc1ccccc1)C(=O)N[C@@H](Cc1ccc(O)cc1)C(=O)N[C@@H](CC(=O)O)C(=O)N[C@@H](C(C)(C)C)C(=O)C[C@H](C(N)=O)CSCc1ccc(cc1)C3=O [I-93] (H-AC[dA]NE[1Nal][dA]CEDFYD[X3]; linker 2-8-C via X4)
> 6.30	C[C@H](N)C(=O)N[C@H]1CSCc2ccc(cc2)CN2Cc3ccc(cc3)CSC[C@@H](C(N)=O)CC(=O)[C@H](C(C)(C)C)NC(=O)[C@H](CC(=O)O)NC(=O)[C@H](Cc3ccc(O)cc3)NC(=O)[C@H](Cc3ccccc3)NC(=O)[C@H](CC(=O)O)NC(=O)[C@H](CCC(=O)O)NC(=O)[C@H](CSCc3ccc(cc3)C2)NC(=O)[C@@H](C)NC(=O)[C@H](Cc2cccc3ccccc23)NC(=O)[C@H](CCC(=O)O)NC(=O)[C@H](CC(N)=O)NC(=O)[C@@H](C)NC1=O [I-96] (H-AC[dA]NE[1Nal][dA]CEDFYD; linker 2-8-C via X12)
